According to article PMC10023787, “Trio-pharmacophore DNA-encoded chemical library for simultaneous selection of fragments and linkers” (Nature Communications, 2023):

Columns and labels:
MMP-2 = biological target: T1, MMP-2 (Homo sapiens, UniProt P08253); assay: MMP-2 inhibition assay (fluorogenic peptide substrate); assay type: biochemical; details: for remaining activity (%): MMP-2; for IC50: mean ± SE, n.d: not detected, Fig. 5d unit inferred, µM, read-out: IC50
T1 construct: purchased Sino Biological 10082-HNAH
T1 sequence (P08253 110-660): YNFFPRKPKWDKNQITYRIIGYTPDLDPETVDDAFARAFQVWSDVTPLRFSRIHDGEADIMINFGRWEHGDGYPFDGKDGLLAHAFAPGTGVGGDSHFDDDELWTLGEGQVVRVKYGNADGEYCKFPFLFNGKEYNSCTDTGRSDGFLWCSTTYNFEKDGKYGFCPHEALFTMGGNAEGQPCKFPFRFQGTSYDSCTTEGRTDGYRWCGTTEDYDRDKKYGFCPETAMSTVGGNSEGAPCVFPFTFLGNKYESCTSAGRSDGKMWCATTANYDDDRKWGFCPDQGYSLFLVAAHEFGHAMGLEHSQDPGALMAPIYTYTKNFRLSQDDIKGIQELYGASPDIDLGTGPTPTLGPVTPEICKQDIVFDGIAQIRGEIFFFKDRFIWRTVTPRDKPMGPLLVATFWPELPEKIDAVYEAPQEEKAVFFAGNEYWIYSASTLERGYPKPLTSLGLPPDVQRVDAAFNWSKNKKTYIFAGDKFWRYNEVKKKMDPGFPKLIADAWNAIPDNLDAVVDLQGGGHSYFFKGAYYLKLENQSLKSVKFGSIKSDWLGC
Outline: (§1)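 Human proMMP-2 and proMMP-9 were activated with 1 mM APMA for 2 h at 37 °C, then used at 6.5 nM (MMP-2) or 10 nM (MMP-9) final in Tris/NaCl/CaCl2/Brij 35 buffer, pH 7.5. After 30 min preincubation with compound at RT, 25 μM FRET peptide substrate was added and fluorescence (ex 280/em 360 nm) followed for 30 min. IC50 came from logistic fits of Vmax.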

MMP-9 = biological target: T2, MMP-9 (Homo sapiens, UniProt P14780); assay: MMP-9 inhibition assay (fluorogenic peptide substrate); assay type: biochemical; set-up: remaining enzyme activity (% of control): scale not given here; details: for remaining enzyme activity (% of control): MMP-9; for IC50: mean ± SE, n.d: not detected, Fig. 5e prints no unit, µM, read-out: IC50
T2 construct: purchased Sino Biological 10327-HNAH
Outline: as §1

T2 sequence (P14780 107-707 limits assumed): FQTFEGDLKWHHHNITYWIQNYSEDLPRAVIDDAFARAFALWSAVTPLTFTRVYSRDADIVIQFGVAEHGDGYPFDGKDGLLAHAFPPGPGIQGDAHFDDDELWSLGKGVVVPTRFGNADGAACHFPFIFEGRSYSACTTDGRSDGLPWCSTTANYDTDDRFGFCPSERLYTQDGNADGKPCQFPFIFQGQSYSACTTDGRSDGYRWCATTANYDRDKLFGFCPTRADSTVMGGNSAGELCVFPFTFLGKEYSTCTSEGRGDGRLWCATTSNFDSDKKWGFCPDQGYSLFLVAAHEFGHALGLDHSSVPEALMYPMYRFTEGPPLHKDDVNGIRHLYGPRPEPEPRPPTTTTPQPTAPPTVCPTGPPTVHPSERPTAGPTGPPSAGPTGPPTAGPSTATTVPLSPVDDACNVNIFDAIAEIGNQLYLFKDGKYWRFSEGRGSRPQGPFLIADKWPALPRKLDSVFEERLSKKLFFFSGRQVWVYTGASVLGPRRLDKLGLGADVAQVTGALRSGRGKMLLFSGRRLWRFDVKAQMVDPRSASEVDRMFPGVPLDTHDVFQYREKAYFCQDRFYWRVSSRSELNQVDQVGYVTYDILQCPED

remaining activity (%) (MMP-2; concentration 0.0156 µM)	remaining activity (%) (MMP-2; concentration 0.08 µM)	remaining activity (%) (MMP-2; concentration 0.39 µM)	remaining activity (%) (MMP-2; concentration 1.95 µM)	IC50 (MMP-2) [µM]	remaining enzyme activity (% of control) (MMP-9; concentration 0.08 µM)	remaining enzyme activity (% of control) (MMP-9; concentration 1.95 µM)	IC50 (MMP-9) [µM]	remaining activity (%) (MMP-2; concentration 0.12 µM)	remaining activity (%) (MMP-2; concentration 0.49 µM)	remaining activity (%) (MMP-2; concentration 7.81 µM)	remaining activity (%) (MMP-2; concentration 31.25 µM)	remaining activity (%) (MMP-2; concentration 125.00 µM)	remaining activity (%) (MMP-2; concentration 500.00 µM)	remaining enzyme activity (% of control) (MMP-9; concentration 0.12 µM)	remaining enzyme activity (% of control) (MMP-9; concentration 0.49 µM)	remaining enzyme activity (% of control) (MMP-9; concentration 7.81 µM)	remaining enzyme activity (% of control) (MMP-9; concentration 31.25 µM)	remaining enzyme activity (% of control) (MMP-9; concentration 125.00 µM)	remaining enzyme activity (% of control) (MMP-9; concentration 500.00 µM)	Compound	also measured
90.99	98.42	91.65	90.86	169 ± 32.6	100.71	86.03	250 ± 24.6	–	–	–	–	–	–	–	–	–	–	–	–	Cc1cc(=O)[nH]c(-n2nc(C)c(CCC(=O)NCCCCCCCCNC(=O)CCC(=O)NCc3c[nH]nn3)c2C)n1 [693+787 Linker 4]	remaining activity (%) (MMP-2; concentration 9.75 µM): 84.93; remaining activity (%) (MMP-2; concentration 48.76 µM): 72.64; remaining activity (%) (MMP-2; concentration 243.80 µM): 40.04; remaining activity (%) (MMP-2; concentration 1219.00 µM): 8.77; remaining enzyme activity (% of control) (MMP-9; concentration 0.39 µM): 80.60; remaining enzyme activity (% of control) (MMP-9; concentration 9.75 µM): 91.12; remaining enzyme activity (% of control) (MMP-9; concentration 48.76 µM): 86.75; remaining enzyme activity (% of control) (MMP-9; concentration 243.80 µM): 51.81; remaining enzyme activity (% of control) (MMP-9; concentration 1219.00 µM): 0.00
92.29	75.74	87.35	94.03	171 ± 12.6	96.44	96.19	230 ± 51.3	–	–	–	–	–	–	–	–	–	–	–	–	Cc1cc(=O)[nH]c(-n2nc(C)c(CCC(=O)NCCOCCOCCNC(=O)CCC(=O)NCc3c[nH]nn3)c2C)n1 [693+787 Linker 10]	remaining activity (%) (MMP-2; concentration 9.75 µM): 78.88; remaining activity (%) (MMP-2; concentration 48.76 µM): 75.04; remaining activity (%) (MMP-2; concentration 243.80 µM): 39.80; remaining activity (%) (MMP-2; concentration 1219.00 µM): 7.43; remaining enzyme activity (% of control) (MMP-9; concentration 0.39 µM): 100.55; remaining enzyme activity (% of control) (MMP-9; concentration 9.75 µM): 93.95; remaining enzyme activity (% of control) (MMP-9; concentration 48.76 µM): 88.14; remaining enzyme activity (% of control) (MMP-9; concentration 243.80 µM): 47.49; remaining enzyme activity (% of control) (MMP-9; concentration 1219.00 µM): 12.51
88.74	98.28	98.89	81.72	149 ± 25.1	94.26	91.22	270 ± 31.4	–	–	–	–	–	–	–	–	–	–	–	–	Cc1cc(=O)[nH]c(-n2nc(C)c(CCC(=O)NCCSCC(=O)NCc3c[nH]nn3)c2C)n1 [693+787 Linker 24]	remaining activity (%) (MMP-2; concentration 9.75 µM): 92.63; remaining activity (%) (MMP-2; concentration 48.76 µM): 69.73; remaining activity (%) (MMP-2; concentration 243.80 µM): 36.49; remaining activity (%) (MMP-2; concentration 1219.00 µM): 2.36; remaining enzyme activity (% of control) (MMP-9; concentration 0.39 µM): 97.78; remaining enzyme activity (% of control) (MMP-9; concentration 9.75 µM): 96.92; remaining enzyme activity (% of control) (MMP-9; concentration 48.76 µM): 92.11; remaining enzyme activity (% of control) (MMP-9; concentration 243.80 µM): 57.21; remaining enzyme activity (% of control) (MMP-9; concentration 1219.00 µM): 9.75
–	–	–	97.44	–	–	98.21	–	100.61	101.27	105.49	103.49	92.36	84.19	100.10	107.84	95.90	93.30	76.07	54.11	Cc1cc(=O)[nH]c(-n2nc(C)c(CCC(=O)NCCNC(=O)c3cnc4c(c3)nc(O)n4C)c2C)n1 [693+826 Linker 1]	–
–	–	–	95.29	–	–	96.18	–	91.52	100.66	98.79	92.06	94.34	70.32	100.31	99.68	93.00	90.00	80.00	69.08	Cc1cc(=O)[nH]c(-n2nc(C)c(CCC(=O)NCCCCCCCCNC(=O)c3cnc4c(c3)nc(O)n4C)c2C)n1 [693+826 Linker 4]	–
–	–	–	91.10	–	–	89.00	–	88.40	91.73	90.16	89.04	84.64	68.06	93.04	87.11	87.83	75.00	69.92	55.88	Cc1cc(=O)[nH]c(-n2nc(C)c(CCC(=O)NCCOCCOCCNC(=O)c3cnc4c(c3)nc(O)n4C)c2C)n1 [693+826 Linker 10]	–
–	–	–	90.36	210 ± 35.3	–	83.12	58.9 ± 10.5	103.13	90.37	93.51	77.90	65.75	29.31	100.00	80.27	88.09	65.00	27.22	12.87	Cc1cc(=O)[nH]c(-n2nc(C)c(CCC(=O)NCCNC(=O)CC(=O)C=CCCCCNC(=O)c3cnc4c(c3)nc(O)n4C)c2C)n1 [693+826 Linker 12]	–
–	–	–	93.80	417 ± 50.3	–	94.32	358 ± 114	98.54	94.49	81.11	77.57	58.31	52.30	99.26	96.54	95.86	95.02	70.00	41.34	Cc1cc(=O)[nH]c(-n2nc(C)c(CCC(=O)NCCSCC(=O)NCCNC(=O)c3cnc4c(c3)nc(O)n4C)c2C)n1 [693+826 Linker 24]	–
–	86.73	–	–	110 ± 13.3	98.15	–	232 ± 35.2	–	–	–	–	–	–	–	–	–	–	–	–	Cc1cc(=O)[nH]c(-n2nc(C)c(CCC(=O)NCCNC(=O)c3cncc(O)c3)c2C)n1 [693+828 Linker 1]	remaining activity (%) (MMP-2; concentration 0.0153 µM): 92.49; remaining activity (%) (MMP-2; concentration 0.38 µM): 90.73; remaining activity (%) (MMP-2; concentration 1.91 µM): 83.36; remaining activity (%) (MMP-2; concentration 9.54 µM): 76.57; remaining activity (%) (MMP-2; concentration 47.72 µM): 66.74; remaining activity (%) (MMP-2; concentration 238.60 µM): 28.54; remaining activity (%) (MMP-2; concentration 1193.00 µM): 3.05; remaining enzyme activity (% of control) (MMP-9; concentration 0.38 µM): 101.08; remaining enzyme activity (% of control) (MMP-9; concentration 1.91 µM): 93.24; remaining enzyme activity (% of control) (MMP-9; concentration 9.54 µM): 99.31; remaining enzyme activity (% of control) (MMP-9; concentration 47.72 µM): 78.04; remaining enzyme activity (% of control) (MMP-9; concentration 238.60 µM): 51.23; remaining enzyme activity (% of control) (MMP-9; concentration 1193.00 µM): 4.04
102.68	100.17	95.94	99.37	212 ± 15.9	97.75	90.34	261 ± 31.3	–	–	–	–	–	–	–	–	–	–	–	–	Cc1cc(=O)[nH]c(-n2nc(C)c(CCC(=O)NCCCCCCCCNC(=O)c3cncc(O)c3)c2C)n1 [693+828 Linker 4]	remaining activity (%) (MMP-2; concentration 9.75 µM): 100.31; remaining activity (%) (MMP-2; concentration 48.76 µM): 87.56; remaining activity (%) (MMP-2; concentration 243.80 µM): 44.10; remaining activity (%) (MMP-2; concentration 1219.00 µM): 12.13; remaining enzyme activity (% of control) (MMP-9; concentration 0.39 µM): 94.18; remaining enzyme activity (% of control) (MMP-9; concentration 9.75 µM): 92.01; remaining enzyme activity (% of control) (MMP-9; concentration 48.76 µM): 87.31; remaining enzyme activity (% of control) (MMP-9; concentration 243.80 µM): 52.96; remaining enzyme activity (% of control) (MMP-9; concentration 1219.00 µM): 7.04
